Measurements: patent publication US12172983B2, “EGFR inhibitors” (Blueprint Medicines Corporation, priority 2019, dated 2024)
Read-outs that look alike come from different tables or passages of the source.

Columns and labels:
EGFR (L858R T790M C797S) = biological target: T1, EGFR (L858R T790M C797S) (Homo sapiens, UniProt P00533, C797S/L858R/T790M); experiment: Biochemical EGFR inhibition assay (Caliper mobility shift), EGFR LRTMCS mutant; settings: inhibitory activity against EGFR LRTMCS mutant; apparent IC50; read-out: Ext Enz LRTMCS
T1 construct: purchased SignalChem E10-122VG
Procedure, shortened: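 Each enzyme was allowed to phosphorylate 10–20% of its peptide at 25° C. before EDTA (35 mM) quench. Separated substrate and product peaks were measured by mobility shift, giving apparent IC50 values.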

[1] = test system: phosphorylation of EGFR (Tyr1068) in NCI-H1975 cell line that harbors the EGFR L858R T790M mutations; experiment: NCI-H1975 pEGFR AlphaLISA assay; format: cell-based; settings: 4-5 hours incubation, read-out: Ext pEGFR H1975
Procedure, shortened: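 NCI-H1975 cells (EGFR L858R/T790M) seeded overnight, then treated with compound for 4-5 h at 37 °C/5% CO2. After lysis, p-EGFR (Tyr1068) quantified by AlphaLISA SureFire Ultra with acceptor then donor beads; IC50 fitted from percent inhibition versus log concentration.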

[2] = inhibition of phosphorylation of mutant EGFR in NCI-H1975 cells
[3] = Homo sapiens, NCI-H1975, inhibition of phosphorylation of mutant EGFR in NCI-H1975 cells

T1 sequence (P00533 25-1210 T790M/C797S/L858R): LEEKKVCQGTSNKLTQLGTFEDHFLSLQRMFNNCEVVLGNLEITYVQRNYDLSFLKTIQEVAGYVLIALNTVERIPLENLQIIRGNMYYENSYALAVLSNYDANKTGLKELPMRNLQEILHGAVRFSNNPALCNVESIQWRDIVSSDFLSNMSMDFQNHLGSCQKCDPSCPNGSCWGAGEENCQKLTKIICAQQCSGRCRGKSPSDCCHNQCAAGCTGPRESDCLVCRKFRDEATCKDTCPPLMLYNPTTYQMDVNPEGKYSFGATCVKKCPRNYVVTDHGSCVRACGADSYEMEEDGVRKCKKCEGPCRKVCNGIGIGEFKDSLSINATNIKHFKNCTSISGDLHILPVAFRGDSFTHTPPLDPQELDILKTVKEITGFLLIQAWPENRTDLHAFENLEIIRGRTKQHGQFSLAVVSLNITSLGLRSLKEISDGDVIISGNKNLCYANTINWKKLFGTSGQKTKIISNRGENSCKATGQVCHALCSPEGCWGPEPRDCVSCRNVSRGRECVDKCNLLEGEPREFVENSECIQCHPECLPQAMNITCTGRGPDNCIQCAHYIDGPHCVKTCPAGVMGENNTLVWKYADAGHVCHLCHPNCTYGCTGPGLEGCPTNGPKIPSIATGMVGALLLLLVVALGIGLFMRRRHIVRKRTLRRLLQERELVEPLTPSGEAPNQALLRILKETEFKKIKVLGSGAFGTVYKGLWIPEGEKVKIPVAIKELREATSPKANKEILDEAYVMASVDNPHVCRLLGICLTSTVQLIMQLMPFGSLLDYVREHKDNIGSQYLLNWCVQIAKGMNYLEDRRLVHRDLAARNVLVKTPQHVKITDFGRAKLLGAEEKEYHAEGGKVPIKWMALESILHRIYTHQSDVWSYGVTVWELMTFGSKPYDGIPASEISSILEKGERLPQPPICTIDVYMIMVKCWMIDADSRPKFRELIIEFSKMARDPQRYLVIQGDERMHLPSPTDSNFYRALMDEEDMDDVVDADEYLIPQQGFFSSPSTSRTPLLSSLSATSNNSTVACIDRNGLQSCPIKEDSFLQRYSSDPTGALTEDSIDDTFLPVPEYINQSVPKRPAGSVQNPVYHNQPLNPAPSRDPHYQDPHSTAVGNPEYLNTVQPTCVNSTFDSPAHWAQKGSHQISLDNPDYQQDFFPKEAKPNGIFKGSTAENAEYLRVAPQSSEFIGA

| IC50 (EGFR (L858R T790M C797S)) [nM] | IC50 [1, 2] [nM] | IC50 [1, 3] [nM] | Structure (SMILES) |
| --- | --- | --- | --- |
| ≤ 15 | ≤ 10 | – | CO[C@H]1CCN(c2nccc(Nc3cc4c(C(C)C)ccc(N5CC(CS(C)(=O)=O)C5)c4cn3)n2)C[C@@H]1O (single isomer, unassigned) [Compound 53, (3S,4S)-1-[4-({8-[3-(methanesulfonylmethyl)azetidin-1-yl]-5-(propan-2-yl)isoquinolin-3-yl}amino)pyrimidin-2-yl]-4-methoxypiperidin-3-ol or (3R,4R)-1-[4-({8-[3-(methanesulfonylmethyl)azetidin-1-yl]-5-(propan-2-yl)isoquinolin-3-yl}amino)pyrimidin-2-yl]-4-methoxypiperidin-3-ol] |
| ≤ 15 | 30.1 to 50 | – | CO[C@H]1CCN(c2nccc(Nc3cc4c(C(C)C)ccc(N5CC(CS(C)(=O)=O)C5)c4cn3)n2)C[C@@H]1O (single isomer, unassigned) [Compound 54, (3R,4R)-1-[4-({8-[3-(methanesulfonylmethyl)azetidin-1-yl]-5-(propan-2-yl)isoquinolin-3-yl}amino)pyrimidin-2-yl]-4-methoxypiperidin-3-ol or (3S,4S)-1-[4-({8-[3-(methanesulfonylmethyl)azetidin-1-yl]-5-(propan-2-yl)isoquinolin-3-yl}amino)pyrimidin-2-yl]-4-methoxypiperidin-3-ol] |
| ≤ 15 | – | 10.1 to 20 | CC(C)c1ccc(N2CC(CS(C)(=O)=O)C2)c2cnc(Nc3ccnc(N4CC[C@@](C)(O)[C@@H](F)C4)n3)cc12 (single isomer, unassigned) [Compound 56] |
| ≤ 15 | – | 10.1 to 20 | CC(C)c1ccc(N2CC(CS(C)(=O)=O)C2)c2cnc(Nc3ccnc(N4CC[C@](C)(O)[C@H](F)C4)n3)cc12 (single isomer, unassigned) [Compound 57] |
| 15.1 to 20 | – | 20.1 to 30 | CC(C)c1ccc(N2CC(CS(C)(=O)=O)C2)c2cnc(Nc3ccnc(N4CC[C@](F)([C@@H](C)O)C4)n3)cc12 (single isomer, unassigned) [Compound 58, (1R)-1-[(3R)-3-fluoro-1-[4-({8-[3-(methanesulfonylmethyl)azetidin-1-yl]-5-(propan-2-yl)isoquinolin-3-yl}amino)pyrimidin-2-yl]pyrrolidin-3-yl]ethan-1-ol or (1S)-1-[(3S)-3-fluoro-1-[4-({8-[3-(methanesulfonylmethyl)azetidin-1-yl]-5-(propan-2-yl)isoquinolin-3-yl}amino)pyrimidin-2-yl]pyrrolidin-3-yl]ethan-1-ol] |
| ≤ 15 | – | 10.1 to 20 | CC(C)c1ccc(N2CC(CS(C)(=O)=O)C2)c2cnc(Nc3ccnc(N4CC[C@@](F)([C@@H](C)O)C4)n3)cc12 (single isomer, unassigned) [Compound 59, (1R)-1-[(3S)-3-fluoro-1-[4-({8-[3-(methanesulfonylmethyl)azetidin-1-yl]-5-(propan-2-yl)isoquinolin-3-yl}amino)pyrimidin-2-yl]pyrrolidin-3-yl]ethan-1-ol or (1S)-1-[(3R)-3-fluoro-1-[4-({8-[3-(methanesulfonylmethyl)azetidin-1-yl]-5-(propan-2-yl)isoquinolin-3-yl}amino)pyrimidin-2-yl]pyrrolidin-3-yl]ethan-1-ol] |
| ≤ 15 | – | 20.1 to 30 | CCS(=O)(=O)CC1CN(c2ccc(C)c3cc(Nc4ccnc(N5C[C@@H](F)[C@@H](O)C(C)(C)C5)n4)ncc23)C1 (single isomer, unassigned) [Compound 60, (4S,5R)-1-{4-[(8-{3-[(ethanesulfonyl)methyl]azetidin-1-yl}-5-methylisoquinolin-3-yl)amino]pyrimidin-2-yl}-5-fluoro-3,3-dimethylpiperidin-4-ol or (4R,5S)-1-{4-[(8-{3-[(ethanesulfonyl)methyl]azetidin-1-yl}-5-methylisoquinolin-3-yl)amino]pyrimidin-2-yl}-5-fluoro-3,3-dimethylpiperidin-4-ol] |
| ≤ 15 | – | ≤ 10 | CCc1ccc(N2C[C@H](CS(C)(=O)=O)[C@H]2C)c2cnc(Nc3ccnc(N4CC[C@@H](O)[C@@](C)(F)C4)n3)cc12 (single isomer, unassigned) [Compound 65] |
| ≤ 15 | – | ≤ 10 | CCS(=O)(=O)C[C@H]1CN(c2cccc3cc(Nc4ccnc(N5C[C@@H](F)[C@@H](O)C(C)(C)C5)n4)ncc23)[C@@H]1C (single isomer, unassigned) [Compound 66, (4S,5R)-1-[4-({8-[(2R,3S)-3-[(ethanesulfonyl)methyl]-2-methylazetidin-1-yl]isoquinolin-3-yl}amino)pyrimidin-2-yl]-5-fluoro-3,3-dimethylpiperidin-4-ol or (4R,5S)-1-[4-({8-[(2R,3S)-3-[(ethanesulfonyl)methyl]-2-methylazetidin-1-yl]isoquinolin-3-yl}amino)pyrimidin-2-yl]-5-fluoro-3,3-dimethylpiperidin-4-ol] |
| ≤ 15 | – | ≤ 10 | CC(C)c1ncc(N2CC(CS(C)(=O)=O)C2)c2cnc(Nc3ccnc(N4CC[C@@H](O)[C@@](C)(F)C4)n3)cc12 (single isomer, unassigned) [Compound 70] |
| 15.1 to 20 | – | 30.1 to 50 | CCS(=O)(=O)CC1CN(c2ccc(OC)c3cc(Nc4ccnc(N5CC[C@@H](O)[C@@](C)(F)C5)n4)ncc23)C1 (single isomer, unassigned) [Compound 77] |
| ≤ 15 | – | 20.1 to 30 | CCOc1ccc(N2CC(CS(C)(=O)=O)C2)c2cnc(Nc3ccnc(N4CC[C@@H](O)[C@@](C)(F)C4)n3)cc12 (single isomer, unassigned) [Compound 78] |
| ≤ 15 | – | 10.1 to 20 | COc1ccc(N2CC(CS(C)(=O)=O)C2)c2cnc(Nc3ccnc(N4C[C@@H](F)[C@@H](O)C(C)(C)C4)n3)cc12 (single isomer, unassigned) [Compound 79, (4S,5R)-5-fluoro-1-[4-({8-[3-(methanesulfonylmethyl)azetidin-1-yl]-5-methoxyisoquinolin-3-yl}amino)pyrimidin-2-yl]-3,3-dimethylpiperidin-4-ol or (4R,5S)-5-fluoro-1-[4-({8-[3-(methanesulfonylmethyl)azetidin-1-yl]-5-methoxyisoquinolin-3-yl}amino)pyrimidin-2-yl]-3,3-dimethylpiperidin-4-ol] |
| ≤ 15 | – | 30.1 to 50 | CCOc1cnc(N2CC(CS(C)(=O)=O)C2)c2cnc(Nc3ccnc(N4CC[C@@H](O)[C@@](C)(F)C4)n3)cc12 (single isomer, unassigned) [Compound 80] |
| ≤ 15 | – | ≤ 10 | [2H]C([2H])([2H])O[C@H]1CCN(c2nccc(Nc3cc4c(C(C)C)ccc(N5CC(CS(C)(=O)=O)C5)c4cn3)n2)C[C@H]1F (single isomer, unassigned) [Compound 81] |
| ≤ 15 | – | ≤ 10 | [2H]C([2H])([2H])O[C@@H]1CCN(c2nccc(Nc3cc4c(C(C)C)ccc(N5CC(CS(C)(=O)=O)C5)c4cn3)n2)C[C@@H]1F (single isomer, unassigned) [Compound 82] |
| ≤ 15 | – | ≤ 10 | C[C@@H]1[C@@H](CS(C)(=O)=O)CN1c1ccc(F)c2cc(Nc3ccnc(N4C[C@H](F)[C@H](O)C(C)(C)C4)n3)ncc12 (single isomer, unassigned) [Compound 83, (4S,5R)-5-fluoro-1-[4-({5-fluoro-8-[(2R,3S)-3-(methanesulfonylmethyl)-2-methylazetidin-1-yl]isoquinolin-3-yl}amino)pyrimidin-2-yl]-3,3-dimethylpiperidin-4-ol or (4R,5S)-5-fluoro-1-[4-({5-fluoro-8-[(2R,3S)-3-(methanesulfonylmethyl)-2-methylazetidin-1-yl]isoquinolin-3-yl}amino)pyrimidin-2-yl]-3,3-dimethylpiperidin-4-ol] |
| ≤ 15 | – | 10.1 to 20 | CO[C@@H]1CCN(c2nccc(Nc3cc4c(F)ccc(N5C[C@H](CS(C)(=O)=O)[C@H]5C)c4cn3)n2)C[C@]1(C)F (single isomer, unassigned) [Compound 84] |
| 20.1 to 30 | – | 30.1 to 50 | CC1(C)CN(c2nccc(Nc3cc4c(F)cc(F)c(N5CC(CS(C)(=O)=O)C5)c4cn3)n2)C[C@@H](F)[C@H]1O (single isomer, unassigned) [Compound 86, (4S,5R)-1-[4-[[5,7-difluoro-8-[3-(methylsulfonylmethyl)azetidin-1-yl]-3-isoquinolyl]amino]pyrimidin-2-yl]-5-fluoro-3,3-dimethyl-piperidin-4-ol or (4R,5S)-1-[4-[[5,7-difluoro-8-[3-(methylsulfonylmethyl)azetidin-1-yl]-3-isoquinolyl]amino]pyrimidin-2-yl]-5-fluoro-3,3-dimethyl-piperidin-4-ol] |
| ≤ 15 | – | 20.1 to 30 | C[C@H](CO)c1ccc(N2CC(CS(C)(=O)=O)C2)c2cnc(Nc3ccnc(N4CCC5(CCO5)CC4)n3)cc12 (single isomer, unassigned) [Compound 87, (2S)-2-{8-[3-(methanesulfonylmethyl)azetidin-1-yl]-3-[(2-{1-oxa-7-azaspiro[3,5]nonan-7-yl}pyrimidin-4-yl)amino]isoquinolin-5-yl}propan-1-ol or (2R)-2-{8-[3-(methanesulfonylmethyl)azetidin-1-yl]-3-[(2-{1-oxa-7-azaspiro[3.5]nonan-7-yl}pyrimidin-4-yl)amino]isoquinolin-5-yl}propan-1-ol] |
| ≤ 15 | – | ≤ 10 | CO[C@H]1CCN(c2nccc(Nc3cc4c(C(C)C)ccc(N5C[C@H](CS(C)(=O)=O)[C@H]5C)c4cn3)n2)C[C@@H]1N (single isomer, unassigned) [Compound 89] |
